Measurements as given in patent US6908904B2, “Pharmaceutical preparation and method for treatment of diabetes” (priority 2000, dated 2005).

How the values were obtained:
[1] = uptake of radiolabeled sulfatide analogues in pancreas after intraperitoneal injection; assay type: in vivo; details: 150 nmol i.p., ob/ob mice, FIG. 6B; for degradation or accumulation in pancreas, 6 h vs 24 h: 6 h and 24 h after i.p.; for uptake in pancreas: tritium-labeled, scintillation counting
From the text: (§1) Native sulfatide isolated from pig brain and structurally characterized by mass spectrometry was modified with regard to the fatty acid composition and tritiated in the sphingosine base. These analogues were administrated intraperitoneally to diabetic ob/ob mice and their uptake in liver and pancreas analyzed after lipid extraction of dissected organs. The aim was to explore whether the exogenously administrated sulfatide was taken up by pancreas and thereby open a possibility to substitute for the quantitative and qualitative alterations of sulfatide seen in the diabetes type 2 models.
(§2) Sulfatide was tritium labeled in the ceramide portion by catalytic hydrogenation with Pd(OAc)2/NaB^3H4. The labeled sulfatide was mixed with unlabelled sulfatide to the required specific activity.
(§3) The fatty acid was removed from native pig brain sulfatide by weak alkaline methanolysis at 80° C. The formed lysosulfatide was, after chromatographic purification, reacylated with respective fatty acid chloride in aqueous sodium acetate-tetrahydrofuran.
(§4) These mice were 12 weeks old and the mean value of the highest blood glucose was […]. At sacrifice the mice were anaesthetized with CO2 and killed by dislocation of the neck vertebrae. This is outlined in Table 2. The liver and pancreas were dissected immediately. The organ were quick-frozen and thawed at analyses (within 4 days).
(§5) The organs were homogenized and the lipids extracted with chloroform/methanol/water. The lipid extracts were evaporated, re-dissolved in chloroform/methanol/water and separated by silica gel chromatography to remove other lipids. The sulfatide containing fraction was used for counting by scintillation.
(§6) The results of the scintillation measurement are presented in FIG. 6A and FIG. 6B—FIG. 6A presenting liver data and FIG. 6B pancreas data—as cpm uptake in total, cpm/mg wet weight of tissue, cpm/mg of tissue protein and % of given cpm residing in the organ

[2] = uptake of radiolabeled sulfatide analogues in liver after intraperitoneal injection; assay type: in vivo; details: 150 nmol i.p., ob/ob mice, FIG. 6A; for degradation or accumulation in liver, 6 h vs 24 h: 6 h and 24 h after i.p.; for uptake in liver: tritium-labeled, scintillation counting
From the text: as §1, §2, §3, §4, §5, §6

insulin crystals = assay: in vitro preservation of insulin crystals stored with sulfatide isoforms; details: compared to C24:0 analogue, native pig brain sulfatide and insulin stored without sulfatide, FIG. 5
From the text: The preservation of insulin crystals, a requirement for storage of an insulin pool that can be released upon raised blood glucose, is increased for sulfatide C16:0 compared to other sulfatide isoforms. […] This is illustrated in FIG. 5.

[3] = further uptake study of sulfatide analogues in pancreas (Example 3); assay type: in vivo; details: i.p., ob/ob mice; FIGS. 7-10
Method: These experiments were performed as in Example 3, but only the uptake in pancreas was studies.
ob/ob mice was thus given C12, C14, C16 och C18 analogues of sulfatide intraperitoneally in the way described above.
The results are illustrated in FIGS. 7-10.

[4] = tested on: T-cell response to insulin; assay: T-cell response to insulin; assay type: cell-based; details: sulfatide in combination with insulin
From the text: The fact that sulfatide is processed through the same intracellular route as insulin further supports the findings according to the invention. Sulfatide is involved in normal processing of insulin, from proinsulin to secreted monomeric insulin. It is involved in the folding and oxidation of proinsulin, and is thus required for insulin formation, it is involved in the preservation of insulin crystals in secretory granules, and is thus required for the storage of the insulin pool, prevents deterioration and fibril formation, and it is involved in the transformation of insulin from hexamer via dimer to monomer form at secretion, and this last conversion to monomer is required for biological activity. Furthermore, sulfatide might be needed in combination with insulin in order to affect the insulin receptors in a proper way and to avoid development of insulin resistance.

[5] = listed as C16:0 sulfatide analogue

Compound | degradation or accumulation in pancreas, 6 h vs 24 h [1] | degradation or accumulation in pancreas, 6 h vs 24 h ([1]; listed as C24) | uptake in pancreas [1] | degradation or accumulation in liver, 6 h vs 24 h [2] | uptake in liver [2] | degradation or accumulation in pancreas, 6 h vs 24 h ([1]; listed as C 16) | degradation or accumulation in pancreas, 6 h vs 24 h [1, 5] | uptake in pancreas ([1]; listed as C16) | uptake in pancreas [1, 5] | preservation of insulin crystals (insulin crystals) | preservation of insulin crystals (insulin crystals; listed as isoform of sulfatide with 16 carbon atoms in the fatty acid) | uptake in pancreas (Example 3) [3] | degradation or accumulation in pancreas, 6 h vs 24 h ([1]; listed as C8:0) | uptake in liver ([2]; listed as C8:0) | T-cell response to insulin [4]
CCCCCCCCCCCCC/C=C/[C@@H](O)[C@H](CO[C@@H]1O[C@H](CO)[C@H](O)[C@H](OS(=O)(=O)O)[C@H]1O)NC(=O)CCCCCCCCCCCCCCCCCCCCCCC [C24:0 analogue] | slight reduction | slight degradation | efficiently taken up in pancreas | slight reduction | lower uptake in liver as compared to the C8:0 analogue |  |  |  |  |  |  |  |  |  | 
CCCCCCCCCCCCC/C=C/[C@@H](O)[C@H](CO[C@@H]1O[C@H](CO)[C@H](O)[C@H](OS(=O)(=O)O)[C@H]1O)NC(=O)CCCCCCCCCCCCCCC [C16:0 analogue] |  |  |  | slight accumulation | higher than for the C24:0 | accumulation | accumulation after 24 hours | efficiently taken up in pancreas | most efficiently taken up | significant effect on the preservation | significant effect on the preservation of insulin crystals | most interesting results |  |  | 
CCCCCCCCCCCCC/C=C/[C@@H](O)[C@H](CO[C@@H]1O[C@H](CO)[C@H](O)[C@H](OS(=O)(=O)O)[C@H]1O)NC(=O)CCCCCCC [C8:0 analogue] | neither accumulation or degradation was noticed |  | much lower than for the other two analogues | rapidly degraded | preferentially taken up in liver |  |  |  |  |  |  |  | no accumulation | rapidly removed from circulation to the liver and degraded | 
galactosylceramide-3-O-sulfate [sulfatide] |  |  |  |  |  |  |  |  |  |  |  |  |  |  | inhibited the T-cell response to insulin
